# Laboratory results published in US7678789B2, “[1,2,4]-dithiazoli(di)ne derivatives, inducers of gluthathione-S-transferase and NADPH quinone oxido-reductase, for prophylaxis and treatment of adverse conditions associated with cytotoxicity in general and apoptosis in particular” (Solvay Pharmaceuticals B.V., priority 2005, dated 2010).
# Experiments:
# [1] = tested on: gluthathione-S-transferase (GST, EC 2.5.1.18); assay: Spectrophotometric determination of EC 2.5.1.18 (GST) induction in PC-12 cells; assay type: cell-based; details: Rat PC-12 cells, 24 hours incubation; negative logarithm of molar concentration causing 50% induction of enzyme activity; CDNB and GSH substrates
# Description: Spectrophotometric Determination of EC 2.5.1.18 (GST) Induction
# Rat PC-12 cells are incubated for 24 hours with a test compound. GST activity is measured using 1-chloro-2,4-dinitrobenzene (CDNB) and gluthathine (GSH) as substrates. The enzyme catalyses the reaction converting these substrates into S-(2,4-dinitrophenyl)glutathione, which product is measured spectrophotometrically at 340 nm. The effect of the test compound is expressed as pEC50: the negative logarithm of the molar concentration of the compound which causes 50% induction of the enzyme activity. Also the maximal percentage enzyme induction is determined. (see Drukarch et al. “Anethole dithiolethione prevents oxidative damage in gluthathione-depleted astrocytes”, Eur. J. Pharmacol. 329, 259-262, 1997).
# [2] = tested on: NAD(P)H: oxidoreductase (NQO, EC 1.6.99.2); assay: Spectrophotometric determination of EC 1.6.99.2 (NQO) induction in PC-12 cells; assay type: cell-based; details: Rat PC-12 cells, 24 hours incubation; negative logarithm of molar concentration causing same half maximal induction as reference compound D3T; menadione/MTT
# Description: Spectrophotometric Determination of EC 1.6.99.2 (NQO) Induction
# Rat PC-12 cells are incubated for 24 hours with a test compound. NAD(P)H: oxidoreductase (NQO, EC 1.6.99.2) activity is measured using menadione as substrate and MTT as readout compound. The formation of formazan from MTT is measured spectrophotometrically at 540 nm. The percentage stimulation (PS) relative to the maximal effect of the reference compound D3T is calculated. The maximal percentage stimulation with the concentration which induced the maximal percentage as condition and the pEA50 value (the negative logarithm of the molar concentration of the compound which caused the same half maximal induction of the enzyme activity as the reference compound D3T) are recorded (see Murphy et al., “Enhanced NAD(P)H:Quinone reductase activity defenses in neuronal cells prevents free radical-mediated damage”, J. Neurochem., 71 69-77, 1998 and Prochaska et al., Analytical Biochemistiy, 169, 328-336 1988).
Structure (SMILES),GST pEC50 [1],NQO pEA50 [2],melting point
CCCCc1ccc(N=c2nc(N(C)C)ss2)cc1 [Compound A2],5.2,5.2,81 to 82.5 °C
CN(C)c1nc(=Nc2ccc([N+](=O)[O-])cc2)ss1 [Compound A10],5.4,5.8,170 to 171.5 °C
Cc1cccc(N=c2nc(N3CCOCC3)ss2)c1 [Compound B5],5.3,5.7,217 to 226 °C
CN=c1ssc(=Nc2ccccc2)n1C [Compound C2],5.8,6.2,80 to 82 °C
CN=c1ssc(=Nc2ccccc2C)n1C [Compound C3],5.8,5.7,100 to 101.4 °C
CN=c1ssc(=Nc2cccc(F)c2)n1C [Compound C11],5.6,5.3,76.5 to 77.6 °C
